From PubChem BioAssay AID1963837 (Molecular Pharmacology Branch, DTP, NCI, 2024)
pIC50: −log10 of the molar value.

Test system: 843126-344-R-J1-PDC complex spheroid viability
Assay: Anticancer human tumor 843126-344-R-J1-PDC patient-derived melanoma cell line growth inhibition [POLQ]
Conditions: for pIC50: curve of first compound; for viability, T/C: stronger effect = lower value; active = viability on the fitted dose curve at most 10% of control; inactive = the rest
Procedure, shortened: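 Complex spheroid viability model combining PDC tumour cells with endothelial (HUVEC) and MSC stromal cells. Novobiocin, ART-558 or RP6685 were tested singly and in combination with standard and investigational anticancer drugs. Each was titrated in half-log steps from near clinical Cmax, or from 10 microM where Cmax was unknown.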

[1] = second compound 0.0316 µM, first compound 0.0316 µM
[2] = second compound 0.0316 µM, first compound 0.1 µM
[3] = second compound 0.0316 µM, first compound 0.316 µM
[4] = second compound 0.0316 µM, first compound 1 µM
[5] = second compound 0.1 µM, first compound 0.0316 µM
[6] = second compound 0.1 µM, first compound 0.1 µM
[7] = second compound 0.1 µM, first compound 0.316 µM
[8] = second compound 0.1 µM, first compound 1 µM
[9] = second compound 0.316 µM, first compound 0.0316 µM
[10] = second compound 0.316 µM, first compound 0.1 µM
[11] = second compound 0.316 µM, first compound 0.316 µM
[12] = second compound 0.316 µM, first compound 1 µM
[13] = second compound 1 µM, first compound 0.0316 µM
[14] = second compound 1 µM, first compound 0.1 µM
[15] = second compound 1 µM, first compound 0.316 µM
[16] = second compound 1 µM, first compound 1 µM
[17] = second compound 3.16 µM, first compound 0.0316 µM
[18] = second compound 3.16 µM, first compound 0.1 µM
[19] = second compound 3.16 µM, first compound 0.316 µM
[20] = second compound 3.16 µM, first compound 1 µM
[21] = second compound 10 µM, first compound 0.0316 µM
[22] = second compound 10 µM, first compound 0.1 µM
[23] = second compound 10 µM, first compound 0.316 µM
[24] = second compound 10 µM, first compound 1 µM
[25] = second compound 0.0316 µM, first compound 3.16 µM
[26] = second compound 0.0316 µM, first compound 10 µM
[27] = second compound 0.1 µM, first compound 3.16 µM
[28] = second compound 0.1 µM, first compound 10 µM
[29] = second compound 0.316 µM, first compound 3.16 µM
[30] = second compound 0.316 µM, first compound 10 µM
[31] = second compound 1 µM, first compound 3.16 µM
[32] = second compound 1 µM, first compound 10 µM
[33] = second compound 3.16 µM, first compound 3.16 µM
[34] = second compound 3.16 µM, first compound 10 µM
[35] = second compound 10 µM, first compound 3.16 µM
[36] = second compound 10 µM, first compound 10 µM
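Throughout, for viability, T/C: spheroids exposed to drugs for seven days before readout.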

COc1cccc(OCCCN)c1-c1cc(Nc2cnc(C#N)cn2)n[nH]1 + Nc1ccc(C#CCN(C(=O)Cc2ncc(C(F)(F)F)cc2C(F)(F)F)c2ccc(F)cc2)nn1
inactive: viability, T/C (second compound 0.0316 µM, first compound 0.00316 µM) 92% | viability, T/C (second compound 0.0316 µM, first compound 0.01 µM) 78.5% | viability, T/C [1] 53.1% | viability, T/C [2] 47.3% | viability, T/C [3] 40% | viability, T/C [4] 35.5% | viability, T/C (second compound 0.1 µM, first compound 0.00316 µM) 91.9% | viability, T/C (second compound 0.1 µM, first compound 0.01 µM) 71.2% | viability, T/C [5] 53% | viability, T/C [6] 53.9% | viability, T/C [7] 45.1% | viability, T/C [8] 32.1% | viability, T/C (second compound 0.316 µM, first compound 0.00316 µM) 92.9% | viability, T/C (second compound 0.316 µM, first compound 0.01 µM) 72.5% | viability, T/C [9] 59.6% | viability, T/C [10] 50% | viability, T/C [11] 42.2% | viability, T/C [12] 35.1% | viability, T/C (second compound 1 µM, first compound 0.00316 µM) 89.8% | viability, T/C (second compound 1 µM, first compound 0.01 µM) 72.6% | viability, T/C [13] 59.6% | viability, T/C [14] 49.2% | viability, T/C [15] 43.8% | viability, T/C [16] 29.3% | viability, T/C (second compound 3.16 µM, first compound 0.00316 µM) 87.2% | viability, T/C (second compound 3.16 µM, first compound 0.01 µM) 74.6% | viability, T/C [17] 44.3% | viability, T/C [18] 41.2% | viability, T/C [19] 38.6% | viability, T/C [20] 38.8% | viability, T/C (second compound 10 µM, first compound 0.00316 µM) 84.8% | viability, T/C (second compound 10 µM, first compound 0.01 µM) 66.8% | viability, T/C [21] 51.9% | viability, T/C [22] 45.8% | viability, T/C [23] 42.8% | viability, T/C [24] 30.4%
7.59: pIC50 (second compound 3.16 µM)
7.27: pIC50 (second compound 10 µM)
7.07: pIC50 (second compound 0.1 µM)
7.24: pIC50 (second compound 0.0316 µM)
7.01: pIC50 (second compound 1 µM)
7.04: pIC50 (second compound 0.316 µM)

CNCc1ccc(-c2[nH]c3cc(F)cc4c3c2CCNC4=O)cc1 + Cc1cccc(N(C)C(=O)C2C(O)CCN2c2nc(C)cc(C(F)(F)F)c2C#N)c1
< 5.00: pIC50 (second compound 0.0316 µM) | pIC50 (second compound 0.1 µM) | pIC50 (second compound 0.316 µM) | pIC50 (second compound 1 µM) | pIC50 (second compound 3.16 µM) | pIC50 (second compound 10 µM)
inactive: viability, T/C [1] 76.6% | viability, T/C [2] 84.1% | viability, T/C [3] 75.3% | viability, T/C [4] 91% | viability, T/C [25] 79.4% | viability, T/C [26] 79.2% | viability, T/C [5] 84.7% | viability, T/C [6] 77% | viability, T/C [7] 95.7% | viability, T/C [8] 73.5% | viability, T/C [27] 87.3% | viability, T/C [28] 64.5% | viability, T/C [9] 85.3% | viability, T/C [10] 98% | viability, T/C [11] 82.6% | viability, T/C [12] 90.2% | viability, T/C [29] 77.3% | viability, T/C [30] 69.7% | viability, T/C [13] 68.9% | viability, T/C [14] 87.2% | viability, T/C [15] 95.7% | viability, T/C [16] 82.4% | viability, T/C [31] 94.6% | viability, T/C [32] 64.3% | viability, T/C [17] 79.8% | viability, T/C [18] 83.4% | viability, T/C [19] 83.6% | viability, T/C [20] 85.2% | viability, T/C [33] 87.5% | viability, T/C [34] 72.9% | viability, T/C [21] 82.5% | viability, T/C [22] 76.9% | viability, T/C [23] 76.9% | viability, T/C [24] 90.5% | viability, T/C [35] 88.3% | viability, T/C [36] 74.9%

COc1cc(C2c3cc4c(cc3C(OC3OC5COC(C)OC5C(O)C3O)C3COC(=O)C23)OCO4)cc(OC)c1O (stereo not drawn) + COC1C(OC(N)=O)C(O)C(Oc2ccc3c(O)c(NC(=O)c4ccc(O)c(CC=C(C)C)c4)c(=O)oc3c2C)OC1(C)C
5.11: pIC50 (second compound 10 µM)
5.04: pIC50 (second compound 1 µM)
< 5.00: pIC50 (second compound 0.0316 µM) | pIC50 (second compound 0.1 µM) | pIC50 (second compound 0.316 µM) | pIC50 (second compound 3.16 µM)
inactive: viability, T/C [1] 86% | viability, T/C [2] 89.4% | viability, T/C [3] 95.3% | viability, T/C [4] 79.8% | viability, T/C [25] 57% | viability, T/C [26] 50.8% | viability, T/C [5] 102% | viability, T/C [6] 91.3% | viability, T/C [7] 88.2% | viability, T/C [8] 86% | viability, T/C [27] 60% | viability, T/C [28] 54.5% | viability, T/C [9] 98% | viability, T/C [10] 89.3% | viability, T/C [11] 97.5% | viability, T/C [12] 83.6% | viability, T/C [29] 60.7% | viability, T/C [30] 52.1% | viability, T/C [13] 81.8% | viability, T/C [14] 82.6% | viability, T/C [15] 97% | viability, T/C [16] 82.1% | viability, T/C [31] 78.9% | viability, T/C [32] 47.3% | viability, T/C [17] 85.8% | viability, T/C [18] 93.6% | viability, T/C [19] 89.5% | viability, T/C [20] 91% | viability, T/C [33] 64.4% | viability, T/C [34] 57.8% | viability, T/C [21] 114% | viability, T/C [22] 96.3% | viability, T/C [23] 91.8% | viability, T/C [24] 85.1% | viability, T/C [35] 58.5% | viability, T/C [36] 47.2%

C=CC(=O)N1CCN(c2nc(=O)n(-c3c(C)ccnc3C(C)C)c3nc(-c4c(O)cccc4F)c(F)cc23)C(C)C1 (stereo not drawn) + Nc1ccc(C#CCN(C(=O)Cc2ncc(C(F)(F)F)cc2C(F)(F)F)c2ccc(F)cc2)nn1
< 5.00: pIC50 (second compound 0.0316 µM) | pIC50 (second compound 0.1 µM) | pIC50 (second compound 0.316 µM) | pIC50 (second compound 1 µM) | pIC50 (second compound 3.16 µM) | pIC50 (second compound 10 µM)
inactive: viability, T/C [1] 105% | viability, T/C [2] 82.8% | viability, T/C [3] 97.3% | viability, T/C [4] 102% | viability, T/C [25] 101% | viability, T/C [26] 84.4% | viability, T/C [5] 104% | viability, T/C [6] 86.1% | viability, T/C [7] 84.9% | viability, T/C [8] 97.8% | viability, T/C [27] 99.2% | viability, T/C [28] 85.6% | viability, T/C [9] 89.3% | viability, T/C [10] 94.9% | viability, T/C [11] 104% | viability, T/C [12] 113% | viability, T/C [29] 94.5% | viability, T/C [30] 85.1% | viability, T/C [13] 101% | viability, T/C [14] 104% | viability, T/C [15] 107% | viability, T/C [16] 94.7% | viability, T/C [31] 104% | viability, T/C [32] 85.4% | viability, T/C [17] 87.5% | viability, T/C [18] 88.7% | viability, T/C [19] 106% | viability, T/C [20] 92.2% | viability, T/C [33] 85.8% | viability, T/C [34] 84.5% | viability, T/C [21] 83.7% | viability, T/C [22] 91.1% | viability, T/C [23] 84.1% | viability, T/C [24] 98.5% | viability, T/C [35] 95.7% | viability, T/C [36] 81.2%
